# Experimental data published in patent publication US10584115B2, “Substituted pyridine and pyrazine BMI-1 inhibitors” (PTC Therapeutics, Inc., priority 2013, dated 2020).
# Where two headings read alike, the source gives them in different places.
# How the values were obtained:
# [1] = system: Bmi-1 protein; assay: Sandwich ELISA Assay (Bmi-1 protein level in HT-1080 cells after compound treatment); format: cell-based
# Summary of the method: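 HT-1080 cells exposed to compounds for 40–48 h at 37 °C (0.5% DMSO final), then lysed. Bmi-1 in lysates measured by sandwich ELISA (mouse monoclonal capture, rabbit anti-Bmi-1 detection, HRP anti-rabbit, TMB), read at OD450 with OD570 reference against a recombinant Bmi-1 standard curve (0–8000 pg/mL).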
# [2] = Table 1, Bmi-1 sandwich ELISA, read-out: ELISA EC50 value for Bmi-1 protein
# [3] = read-out: ELISA EC50 value for Bmi-1 protein, Table 1, Bmi-1 sandwich ELISA
SMILES,"EC50 [1, 2] [nM]",melting point [°C],"EC50 [1, 3] [nM]"
"CC(=O)n1nc(C)c(-c2cncc(Nc3ccc(C(F)(F)F)cc3)n2)c1C [compound 277, 1-[3,5-dimethyl-4-(6-{[4-(trifluoromethyl)phenyl]amino}pyrazin-2-yl)-1H-pyrazol-1-yl]ethanone]",100 to 3000,199 to 200,–
"CCOC(=O)n1nc(C)c(-c2cncc(Nc3ccc(C(F)(F)F)cc3)n2)c1C [compound 278, ethyl 3,5-dimethyl-4-(6-{[4-(trifluoromethyl)phenyl]amino}pyrazin-2-yl)-1H-pyrazole-1-carboxylate]",100 to 3000,122 to 123,–
"CCOC(=O)n1nc(C)c(-c2cncc(Nc3ccc(OC(F)F)cc3)n2)c1C [compound 279, ethyl 4-(6-{[4-(difluoromethoxy)phenyl]amino}pyrazin-2-yl)-3,5-dimethyl-1H-pyrazole-1-carboxylate]",100 to 3000,92 to 93,–
"Cc1c(-c2cncc(Nc3ccc(OC(F)(F)F)cc3)n2)c(C(F)(F)F)nn1C [compound 281, 6-[1,5-dimethyl-3-(trifluoromethyl)-1H-pyrazol-4-yl]-N-[4-(trifluoromethoxy)phenyl]pyrazin-2-amine]",100 to 3000,157 to 158,–
"Cc1nc2ccc(F)cn2c1-c1cncc(Nc2ccc(C(F)(F)F)c(F)c2)n1 [compound 310, 6-(6-fluoro-2-methylimidazo[1,2-a]pyridin-3-yl)-N-[3-fluoro-4-(trifluoromethyl)phenyl]pyrazin-2-amine]",10 to 100,216 to 218,–
"Cc1nc2ccc(F)cn2c1-c1cc(C#N)cc(Nc2ccc(C(F)(F)F)c(F)c2)n1 [compound 312, 2-(6-fluoro-2-methylimidazo[1,2-a]pyridin-3-yl)-6-{[3-fluoro-4-(trifluoromethyl)phenyl]amino}pyridine-4-carbonitrile]",10 to 100,245 to 249,–
"Cc1nc2ccc(F)cn2c1-c1cc(N)cc(Nc2ccc(C(F)(F)F)cc2)n1 [compound 316, 6-(6-fluoro-2-methylimidazo[1,2-a]pyridin-3-yl)-N^2-[4-(trifluoromethyl)phenyl]pyridine-2,4-diamine]",–,161 to 163,1 to 10
"Cc1nc2ccc(F)cc2n1-c1cncc(Nc2ccc(OC(F)F)c(F)c2)n1 [compound 320, N-[4-(difluoromethoxy)-3-fluorophenyl]-6-(6-fluoro-2-methyl-1H-benzimidazol-1-yl)pyrazin-2-amine]",10 to 100,230 to 231,–
"CCn1nc(C(F)(F)F)c(-c2cncc(Nc3ccc(C(F)(F)F)cc3)n2)c1C [compound 329, 6-[1-ethyl-5-methyl-3-(trifluoromethyl)-1H-pyrazol-4-yl]-N-[4-(trifluoromethyl)phenyl]pyrazin-2-amine]",10 to 100,150 to 151,–
"CCn1nc(C(F)(F)F)c(-c2cncc(Nc3ccc(OC(F)(F)F)cc3)n2)c1C [compound 331, 6-[1-ethyl-5-methyl-3-(trifluoromethyl)-1H-pyrazol-4-yl]-N-[4-(trifluoromethoxy)phenyl]pyrazin-2-amine]",100 to 3000,128 to 129,–
"CCc1nn(C)c(CC)c1-c1cncc(Nc2ccc(C(F)(F)F)cc2)n1 [compound 332, 6-(3,5-diethyl-1-methyl-1H-pyrazol-4-yl)-N-[4-(trifluoromethyl)phenyl]pyrazin-2-amine]",10 to 100,59 to 60,–
"CCc1nn(C)c(CC)c1-c1cncc(Nc2ccc(OC(F)(F)F)cc2)n1 [compound 334, 6-(3,5-diethyl-1-methyl-1H-pyrazol-4-yl)-N-[4-(trifluoromethoxy)phenyl]pyrazin-2-amine]",10 to 100,122 to 123,–
"N#Cc1cc(Nc2ccc(C(F)(F)F)cc2)nc(-c2c(C3CC3)nc3ccc(F)cn23)c1 [compound 346, 2-(2-cyclopropyl-6-fluoroimidazo[1,2-a]pyridin-3-yl)-6-{[4-(trifluoromethyl)phenyl]amino}pyridine-4-carbonitrile]",10 to 100,245 to 247,–
"N#Cc1cc(Nc2ccc(C(F)(F)F)c(F)c2)nc(-c2c(C3CC3)nc3ccc(F)cn23)c1 [compound 347, 2-(2-cyclopropyl-6-fluoroimidazo[1,2-a]pyridin-3-yl)-6-{[3-fluoro-4-(trifluoromethyl)phenyl]amino}pyridine-4-carbonitrile]",10 to 100,256 to 258,–
"N#Cc1cc(Nc2ccc(OC(F)F)c(F)c2)nc(-c2c(C3CC3)nc3ccc(F)cn23)c1 [compound 349, 2-(2-cyclopropyl-6-fluoroimidazo[1,2-a]pyridin-3-yl)-6-{[4-(difluoromethoxy)-3-fluorophenyl]amino}pyridine-4-carbonitrile]",10 to 100,185 to 186,–
"N#Cc1cc(Nc2ccc(OC(F)(F)F)cc2)nc(-c2c(C3CC3)nc3ccc(F)cn23)c1 [compound 350, 2-(2-cyclopropyl-6-fluoroimidazo[1,2-a]pyridin-3-yl)-6-{[4-(trifluoromethoxy)phenyl]amino}pyridine-4-carbonitrile]",10 to 100,194 to 195,–
"Cc1nn(CCn2ncnn2)c(C)c1-c1cncc(Nc2ccc(C(F)(F)F)cc2)n1 [compound 352, 6-{3,5-dimethyl-1-[2-(2H-tetrazol-2-yl)ethyl]-1H-pyrazol-4-yl}-N-[4-(trifluoromethyl)phenyl]pyrazin-2-amine]",–,138 to 139,1 to 10
"Nc1cc(Nc2ccc(C(F)(F)F)cc2)nc(-c2c(C3CC3)nc3ccc(F)cn23)c1 [compound 363, 6-(2-cyclopropyl-6-fluoroimidazo[1,2-a]pyridin-3-yl)-N^2-[4-(trifluoromethyl)phenyl]pyridine-2,4-diamine]",100 to 3000,160 to 162,–

# Second part, led by results:
"EC50 [1, 2] [nM]",melting point [°C],SMILES,"EC50 [1, 3] [nM]"
1 to 10,205 to 207,"CCc1nc2ccc(F)cc2n1-c1cncc(Nc2ccc(OC(F)F)cc2)n1 [compound 260, N-[4-(difluoromethoxy)phenyl]-6-(2-ethyl-6-fluoro-1H-benzimidazol-1-yl)pyrazin-2-amine]",–
10 to 100,223 to 225,"Cc1nc2ccc(F)cc2n1-c1cc(C#N)cc(Nc2ccc(C(F)(F)F)cc2)n1 [compound 261, 2-(6-fluoro-2-methyl-1H-benzimidazol-1-yl)-6-{[4-(trifluoromethyl)phenyl]amino}pyridine-4-carbonitrile]",–
10 to 100,231 to 232,"Cc1nc2ccc(F)cc2n1-c1cc(C#N)cc(Nc2ccc(OC(F)F)cc2)n1 [compound 262, 2-{[4-(difluoromethoxy)phenyl]amino}-6-(6-fluoro-2-methyl-1H-benzimidazol-1-yl)pyridine-4-carbonitrile]",–
1 to 10,182 to 183,"Cc1nn(C)c(C)c1-c1cc(C#N)cc(Nc2ccc(C(F)(F)F)cc2)n1 [compound 263, 2-{[4-(trifluoromethyl)phenyl]amino}-6-(1,3,5-trimethyl-1H-pyrazol-4-yl)pyridine-4-carbonitrile]",–
1 to 10,144 to 145,"Cc1nn(C)c(C)c1-c1cc(C#N)cc(Nc2ccc(OC(F)F)cc2)n1 [compound 264, 2-{[4-(difluoromethoxy)phenyl]amino}-6-(1,3,5-trimethyl-1H-pyrazol-4-yl)pyridine-4-carbonitrile]",–
10 to 100,135 to 136,"Cc1nn(C)c(C)c1-c1cc(C#N)cc(Nc2ccc(OC(F)(F)F)cc2)n1 [compound 265, 2-{[4-(trifluoromethoxy)phenyl]amino}-6-(1,3,5-trimethyl-1H-pyrazol-4-yl)pyridine-4-carbonitrile]",–
1 to 10,231 to 233,"Cc1nc2ccc(F)cn2c1-c1cc(C#N)cc(Nc2ccc(OC(F)F)c(F)c2)n1 [compound 311, 2-{[4-(difluoromethoxy)-3-fluorophenyl]amino}-6-(6-fluoro-2-methylimidazo[1,2-a]pyridin-3-yl)pyridine-4-carbonitrile]",–
1 to 10,182 to 183,"Cc1nc2ccc(F)cn2c1-c1cc(N)cc(Nc2ccc(OC(F)F)c(F)c2)n1 [compound 315, N^2-[4-(difluoromethoxy)-3-fluorophenyl]-6-(6-fluoro-2-methylimidazo[1,2-a]pyridin-3-yl)pyridine-2,4-diamine]",–
1 to 10,172 to 174,"Cc1nn(CCO)c(C)c1-c1cncc(Nc2ccc(C(F)(F)F)cc2)n1 [compound 335, 2-[3,5-dimethyl-4-(6-{[4-(trifluoromethyl)phenyl]amino}pyrazin-2-yl)-1H-pyrazol-1-yl]ethanol]",–
1 to 10,183 to 185,"Fc1ccc2nc(C3CC3)c(-c3cncc(Nc4ccc(C(F)(F)F)cc4)n3)n2c1 [compound 336, 6-(2-cyclopropyl-6-fluoroimidazo[1,2-a]pyridin-3-yl)-N-[4-(trifluoromethyl)phenyl]pyrazin-2-amine]",–
< 1,183 to 185,"Fc1ccc2nc(C3CC3)c(-c3cncc(Nc4ccc(OC(F)F)cc4)n3)n2c1 [compound 337, 6-(2-cyclopropyl-6-fluoroimidazo[1,2-a]pyridin-3-yl)-N-[4-(difluoromethoxy)phenyl]pyrazin-2-amine]",–
1 to 10,173 to 175,"Fc1ccc2nc(C3CC3)c(-c3cncc(Nc4ccc(OC(F)F)c(F)c4)n3)n2c1 [compound 338, 6-(2-cyclopropyl-6-fluoroimidazo[1,2-a]pyridin-3-yl)-N-[4-(difluoromethoxy)-3-fluorophenyl]pyrazin-2-amine]",–
1 to 10,263 to 265,"Fc1ccc2nc(C3CC3)n(-c3cncc(Nc4ccc(C(F)(F)F)cc4)n3)c2c1 [compound 362, 6-(2-cyclopropyl-6-fluoro-1H-benzimidazol-1-yl)-N-[4-(trifluoromethyl)phenyl]pyrazin-2-amine]",–
